Assay results taken from US20120122908A1, “Novel C-4 Substituted Retinoids” (University of Maryland, priority 2000, published 2012).
Where two headings read alike, the source gives them in different places.

Assays:
[1] = Pharmacokinetic studies in mice (plasma levels by HPLC); type: in vivo
Experimental: FIG. 18: Plasma Levels in Balb/c Mice Following Dose of 10 mg/kg body weight Given s/c.
Pharmacokinetic studies of VN/65-4 and VN/66-1 were measured in mice and were compared to VN/14-1 and VN/50A-1. Mice were dosed s.c. at 10 mg/kg using a vehicle, 45% β-cyclodextrin in water, and plasma levels were measured by HPLC. […] The results are summarized in Table 3 below and the profiles in FIG. 18.

CYP17 (17-lyase) = biological target: T1, CYP17 (17-lyase) (Homo sapiens, UniProt P05093); assay: Selectivity: effect on CYP17 (17-lyase); type: biochemical; conditions: concentration as high as 5 μM
T1 sequence (P05093 1-508): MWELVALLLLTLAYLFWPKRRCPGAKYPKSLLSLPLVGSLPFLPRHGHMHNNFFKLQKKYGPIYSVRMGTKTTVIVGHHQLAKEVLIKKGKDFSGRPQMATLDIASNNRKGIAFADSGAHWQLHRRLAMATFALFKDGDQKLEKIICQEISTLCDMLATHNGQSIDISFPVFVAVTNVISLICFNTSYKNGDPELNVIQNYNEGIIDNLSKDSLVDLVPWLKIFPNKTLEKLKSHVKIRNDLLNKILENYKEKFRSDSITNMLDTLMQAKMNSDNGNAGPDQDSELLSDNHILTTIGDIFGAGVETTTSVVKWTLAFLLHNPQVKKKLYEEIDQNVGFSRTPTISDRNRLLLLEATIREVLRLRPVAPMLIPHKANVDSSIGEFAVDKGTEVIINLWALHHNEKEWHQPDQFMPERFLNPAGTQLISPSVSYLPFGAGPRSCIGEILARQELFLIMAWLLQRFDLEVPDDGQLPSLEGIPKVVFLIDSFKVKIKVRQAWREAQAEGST
Experimental: The selectivity of the compounds of the present invention towards ATRA-4-hydroxylase was tested by measuring the effect on the key enzymes in the biosynthesis of estradiol and dehydroepiandrosterone, CYP19 (aromatase) and CYP17 (17-lyase), respectively.

RAR ? = biological target: T2, RAR ? (Homo sapiens, UniProt P10826); assay: Competitive [3H]ATRA binding to recombinant RAR (third subtype); conditions: for binding to RAR (third subtype): concentrations up to 500 nM
T2 construct: Recombinant full-length RAR proteins were expressed as S-Tag fusion proteins in BL21 E. coli cells; S-Tag; made in house; host or cells: E. coli BL21
T2 sequence (P10826 1-455): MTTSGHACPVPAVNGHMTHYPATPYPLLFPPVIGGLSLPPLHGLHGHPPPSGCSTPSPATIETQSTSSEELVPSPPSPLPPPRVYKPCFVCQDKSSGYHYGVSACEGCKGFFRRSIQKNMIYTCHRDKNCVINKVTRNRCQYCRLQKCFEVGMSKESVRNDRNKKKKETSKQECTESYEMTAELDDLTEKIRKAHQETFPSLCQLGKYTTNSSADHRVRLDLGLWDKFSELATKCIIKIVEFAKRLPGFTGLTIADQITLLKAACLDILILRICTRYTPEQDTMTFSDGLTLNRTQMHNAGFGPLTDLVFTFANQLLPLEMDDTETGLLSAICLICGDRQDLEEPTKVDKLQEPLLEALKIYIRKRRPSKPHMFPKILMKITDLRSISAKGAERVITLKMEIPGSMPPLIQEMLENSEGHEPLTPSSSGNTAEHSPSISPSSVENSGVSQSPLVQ
From the text: Because the novel compounds are retinoid-related analogs, they bind to the retinoid receptors in vivo and thus have increased therapeutic potentials. Similar to ATRA, these novel compounds act as a ligand for the retinoic acid receptors (RARs, α, β, and γ) but not the retinoid X receptors (RXRs, α, β, and γ). […] (Nervi C, Grippo J F, Sherman M I, George M D, Jetten A M, Identification and characterization of nuclear retinoic acid-binding activity inhuman myeloblastic leukemia HL-60 cells, Proc Natl Acad Sci USA 86: 5854-5858, 1989) The dissociation constants for the inhibitors is determined by the well described charcoal absorption method (Yang N, Schule R, Mangelsdorf D J, Evans R M, Characterization of DNA binding and retinoic acid binding properties of retinoic acid receptor, Proc Natl Acad Sci USA 88: 3559-3663, 1991). Briefly, serial dilutions of the novel compounds (10^−11 to 10^−5 M) in dimethyl sulfoxide, 100 μL each is used. 12 mg of crude cytosolic extracts is prepared from pET15b (Novagen, Madison, Wis.)/hRAR-α, -β, and -γ prepared protein is used for each data point. All reactions are conducted in binding buffer (60 mM Na imidazole, 500 mM NaCl, 20 mM Tris, pH 7.9) for 14-16 hours at 4° C. in a final volume of 1 mL. Unbound [^3H]ATRA is removed by addition of 0.5 mL of equivalent-sized dextran-treated charcoal (final concentration 3% [wt/vol]) for 15 minutes at 4° C. […]
Since the RAMBAs are retinoic acid analogs, it is possible that some of the compounds may bind to retinoid receptors and function as either transcriptional agonists/antagonists or may display anti AP-1 activity (Chambon P, A decade of molecular biology of retinoic acid, FASEB J 10: 5899-5904, 19962. The ability of three RAMBAs, VN/14-1, VN/50A-1 and VN/66-1 to bind to the individual RAR receptors was thus evaluated in vitro. Recombinant full-length RAR proteins were expressed as S-Tag fusion proteins in BL21 E. coli cells used for competitive binding assays. Each competition-binding assay contained 1 nM [^3H] […]

[2] = mice, 10 mg/kg s.c., average of two animals

Row | SMILES | AUC [1, 2] | Cmax [1, 2] | Tmax [1, 2] | t1/2 [1, 2] | inhibition of CYP17 (17-lyase) (CYP17 (17-lyase)) | IC50 (RAR ?; 1 nM [3H]ATRA, competitor 1 nM to 500 nM) | Cmax ([1]; Balb/c, mouse, plasma, sc, mice, 10 mg/kg s.c., average of two animals, read-out: Cmax) | binding to RAR (third subtype) (RAR ?) | time to complete elimination from plasma ([1]; after administration to mice, FIG. 18)
1 | CC1=C(/C=C/C(C)=C/C=C/C(C)=C/C(=O)O)C(C)(C)CCC1n1ccnc1 (racemic) [VN/14-1, (±)-4-(1H-imidazole-1-yl)retinoic acid] | 567.80 μ/ml min | 5020 ng/mL | 30 min | 68.4 min | barely inhibited | ~200 nM | – | – | –
2 | CC(C=CC1=C(C)C(n2ccnc2)CCC1(C)C)=CC=CC(C)=CC(=O)Nc1ccc(O)cc1 (racemic) [VN/66-1, (±)-4-(1H-imidazol-1-yl), N-(4′-hydroxyphenyl)retinamide] | – | – | – | – | barely inhibited | – | 16000 ng/mL | did not bind | –
3 | CC(C=CC1=C(C)C(n2ccnc2)CCC1(C)C)=CC=CC(C)=CC(=O)n1ccnc1 (stereo not drawn) [VN/50A-1] | – | – | – | – | barely inhibited | – | – | did not bind | ≤ 3 h
